Test system: flea serine proteases
Assay: in vitro inhibition of flea protease activity
Format: biochemical
Description: In one embodiment, a protease inhibitor that can be used in a composition of the present invention to treat an animal is identified by a method including the following steps: (a) identifying candidate (i.e., putative, possible) inhibitor compounds by testing the efficacy of one or more protease inhibitors (i) in vitro for their ability to inhibit flea protease activity and/or (ii) in a flea feeding assay for their ability to reduce the survival and/or fecundity of fleas by adding the inhibitors to the blood meal of a flea being maintained, for example, in a feeding system, such as that described by Wade et al., 1988, J. Med Entomol. 25, 186-190; and (b) testing the efficacy of the candidate inhibitor compounds in animals infested with fleas. […] Furthermore, candidate inhibitor compounds identified by the flea feeding assays can include not only desired compounds but also compounds that reduce the viability and/or fecundity of fleas due to general toxicity (e.g., affecting the mitochondria of fleas).

aprotinin
inhibition of flea serine proteases in the presence of serum proteins (in the presence of serum proteins, such as are found in the blood): does not work well | inhibition of flea serine proteases (in vitro): can inhibit at least some flea serine proteases in vitro

— patent publication US6406900B1, “Flea protease proteins, nucleic acid molecules and uses thereof” (Heska Corporation, priority 1991, dated 2002)
